Results on 18 compounds are retold here after patent US20220281876A1, “DEGRADATION OF BRUTON'S TYROSINE KINASE (BTK) BY CONJUGATION OF BTK INHIBITORS WITH E3 LIGASE LIGAND AND METHODS OF USE” (BEIGENE, LTD., priority 2019, published 2022).

SMILES strings stand for the structures.

As usually defined, the DC50 is the concentration giving 50% degradation.

This test deals with T1, BTK (Homo sapiens, UniProt Q06187).
T1 construct: endogenous in cells; host or cells: Ramos cells
Briefly: BTK cell degradation in Ramos cells (total BTK ELISA). It counts as cell-based. The note with it: 16 h incubation, FastScan total BTK ELISA. Put shortly:
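Ramos cells were treated for 16 h with compounds (7 doses, 5-fold dilution series, 0.1% DMSO). Total BTK in cell lysates was quantified by sandwich ELISA with TMB read-out at 450 nm.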
(In an ELISA, binding on a coated surface is turned into a signal by an enzyme label.)

T1 sequence (Q06187 whole entry): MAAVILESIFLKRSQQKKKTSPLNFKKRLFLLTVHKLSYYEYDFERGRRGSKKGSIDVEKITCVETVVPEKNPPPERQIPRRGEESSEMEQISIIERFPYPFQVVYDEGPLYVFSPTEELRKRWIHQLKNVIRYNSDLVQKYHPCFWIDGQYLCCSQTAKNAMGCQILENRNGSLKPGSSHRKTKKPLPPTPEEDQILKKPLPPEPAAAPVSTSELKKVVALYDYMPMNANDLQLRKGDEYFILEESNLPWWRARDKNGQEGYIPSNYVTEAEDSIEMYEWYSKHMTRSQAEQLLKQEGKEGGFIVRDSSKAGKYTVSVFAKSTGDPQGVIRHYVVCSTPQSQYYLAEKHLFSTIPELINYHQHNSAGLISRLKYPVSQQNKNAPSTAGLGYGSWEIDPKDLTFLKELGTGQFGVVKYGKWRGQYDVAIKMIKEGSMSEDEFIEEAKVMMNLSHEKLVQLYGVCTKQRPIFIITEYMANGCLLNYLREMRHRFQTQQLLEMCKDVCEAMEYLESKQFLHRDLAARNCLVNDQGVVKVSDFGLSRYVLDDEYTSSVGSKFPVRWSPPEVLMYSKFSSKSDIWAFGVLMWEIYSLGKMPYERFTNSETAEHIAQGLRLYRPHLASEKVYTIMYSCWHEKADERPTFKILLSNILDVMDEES

The compound `CN(C/C=C/C(=O)N1CCC([C@@H]2CCNc3c(C(N)=O)c(-c4ccc(Oc5ccccc5)cc4)nn32)CC1)CCCCCCNc1cccc2c1CN(C1CCC(=O)NC1=O)C2=O` (stereo partly drawn) [Example 47, (7S)-7-(1-((E)-4-((6-((2-(2,6-dioxopiperidin-3-yl)-1-oxoisoindolin-4-yl)amino)hexyl)(methyl)amino)but-2-enoyl)piperidin-4-yl)-2-(4-phenoxyphenyl)-4,5,6,7-tetrahydropyrazolo[1,5-a]pyrimidine-3-carboxamide] registered a DC50 of 315 nM. To `CN(/C=C/C(=O)N1CCC([C@@H]2CCNc3c(C(N)=O)c(-c4ccc(Oc5ccccc5)cc4)nn32)CC1)CCNc1cccc2c1C(=O)N(C1CCC(=O)NC1=O)C2=O` (stereo partly drawn) [Example 49, (7S)-7-(1-((E)-3-((2-((2-(2,6-dioxopiperidin-3-yl)-1,3-dioxoisoindolin-4-yl)amino)ethyl)(methyl)amino)acryloyl)piperidin-4-yl)-2-(4-phenoxyphenyl)-4,5,6,7-tetrahydropyrazolo[1,5-a]pyrimidine-3-carboxamide] belongs over 10000 nM; to `CN(C/C=C/C(=O)N1CCC([C@@H]2CCNc3c(C(N)=O)c(-c4ccc(Oc5ccccc5)cc4)nn32)CC1)CCCCCCN1C(=O)CCC(N2C(=O)c3cccc(N)c3C2=O)C1=O` (stereo partly drawn) [Example 50, (7S)-7-(1-((E)-4-((6-(3-(4-amino-1,3-dioxoisoindolin-2-yl)-2,6-dioxopiperidin-1-yl)hexyl)(methyl)amino)but-2-enoyl)piperidin-4-yl)-2-(4-phenoxyphenyl)-4,5,6,7-tetrahydropyrazolo[1,5-a]pyrimidine-3-carboxamide], over 10000 nM. For `CN(C/C=C/C(=O)N1CCC([C@@H]2CCNc3c(C(N)=O)c(-c4ccc(Oc5ccccc5)cc4)nn32)CC1)CCCCCCN1C(=O)CCC(N2Cc3c(N)cccc3C2=O)C1=O` (stereo partly drawn) [Example 51, (7S)-7-(1-((E)-4-((6-(3-(4-amino-1-oxoisoindolin-2-yl)-2,6-dioxopiperidin-1-yl)hexyl)(methyl)amino)but-2-enoyl)piperidin-4-yl)-2-(4-phenoxyphenyl)-4,5,6,7-tetrahydropyrazolo[1,5-a]pyrimidine-3-carboxamide], the DC50 is over 10000 nM. With `CN(C/C=C/C(=O)N1CCC([C@@H]2CCNc3c(C(N)=O)c(-c4ccc(Oc5ccccc5)cc4)nn32)CC1)CCOCCOCCOCCN1C(=O)CCC(N2Cc3c(N)cccc3C2=O)C1=O` (stereo partly drawn) [Example 52, (7S)-7-(1-((E)-1-(3-(4-amino-1-oxoisoindolin-2-yl)-2,6-dioxopiperidin-1-yl)-12-methyl-3,6,9-trioxa-12-azahexadec-14-en-16-oyl)piperidin-4-yl)-2-(4-phenoxyphenyl)-4,5,6,7-tetrahydropyrazolo[1,5-a]pyrimidine-3-carboxamide] the figure was 144 nM. With `CN(C/C=C/C(=O)N1CCC([C@@H]2CCNc3c(C(N)=O)c(-c4ccc(Oc5ccccc5)cc4)nn32)CC1)CCCN1C(=O)CCC(N2Cc3c(N)cccc3C2=O)C1=O` (stereo partly drawn) [Example 54, (7S)-7-(1-((E)-4-((3-(3-(4-amino-1-oxoisoindolin-2-yl)-2,6-dioxopiperidin-1-yl)propyl)(methyl)amino)but-2-enoyl)piperidin-4-yl)-2-(4-phenoxyphenyl)-4,5,6,7-tetrahydropyrazolo[1,5-a]pyrimidine-3-carboxamide] the figure was 428 nM.

Consider `CN(C/C=C/C(=O)N1CCC([C@@H]2CCNc3c(C(N)=O)c(-c4ccc(Oc5ccccc5)cc4)nn32)CC1)CCOCCOCCN1C(=O)CCC(N2Cc3c(N)cccc3C2=O)C1=O` (stereo partly drawn) [Example 55, (7S)-7-(1-((E)-4-((2-(2-(2-(3-(4-amino-1-oxoisoindolin-2-yl)-2,6-dioxopiperidin-1-yl)ethoxy)ethoxy)ethyl)(methyl)amino)but-2-enoyl)piperidin-4-yl)-2-(4-phenoxyphenyl)-4,5,6,7-tetrahydropyrazolo[1,5-a]pyrimidine-3-carboxamide], for which the DC50 was found to be 382 nM. To `NC(=O)c1c(-c2ccc(Oc3ccccc3)cc2)nn2c1NCC[C@H]2C1CCN(C(=O)CCN2CCN(c3ccc(CNC(=O)CCN4C(=O)CCC(N5Cc6c(N)cccc6C5=O)C4=O)cc3)CC2)CC1` (stereo partly drawn) [Example 56, (7S)-7-(1-(3-(4-(4-((3-(3-(4-amino-1-oxoisoindolin-2-yl)-2,6-dioxopiperidin-1-yl)propanamido)methyl)phenyl)piperazin-1-yl)propanoyl)piperidin-4-yl)-2-(4-phenoxyphenyl)-4,5,6,7-tetrahydropyrazolo[1,5-a]pyrimidine-3-carboxamide] belongs 2360 nM; to `NC(=O)c1c(-c2ccc(Oc3ccccc3)cc2)nn2c1NCC[C@H]2C1CCN(C(=O)CCc2ccc(NC(=O)CNc3ccc4c(c3)C(=O)N(C3CCC(=O)NC3=O)C4=O)cc2)CC1` (stereo partly drawn) [Example 57, (7S)-7-(1-(3-(4-(2-((2-(2,6-dioxopiperidin-3-yl)-1,3-dioxoisoindolin-5-yl)amino)acetamido)phenyl)propanoyl)piperidin-4-yl)-2-(4-phenoxyphenyl)-4,5,6,7-tetrahydropyrazolo[1,5-a] pyrimidine-3-carboxamide], over 10000 nM. With `NC(=O)c1c(-c2ccc(Oc3ccccc3)cc2)nn2c1NCC[C@H]2C1CCN(C(=O)CCCc2ccc(NC(=O)CNc3ccc4c(c3)C(=O)N(C3CCC(=O)NC3=O)C4=O)cc2)CC1` (stereo partly drawn) [Example 58, (7S)-7-(1-(4-(4-(2-((2-(2,6-dioxopiperidin-3-yl)-1,3-dioxoisoindolin-5-yl)amino)acetamido)phenyl)butanoyl)piperidin-4-yl)-2-(4-phenoxyphenyl)-4,5,6,7-tetrahydropyrazolo[1,5-a] pyrimidine-3-carboxamide] the figure was 28 nM.

Compound `NC(=O)c1c(-c2ccc(Oc3ccccc3)cc2)nn2c1NCC[C@H]2C1CCN(C(=O)CCN2CCN(C(=O)CNc3ccc4c(c3)C(=O)N(C3CCC(=O)NC3=O)C4=O)CC2)CC1` (stereo partly drawn) [Example 63, (7S)-7-(1-(3-(4-((2-(2,6-dioxopiperidin-3-yl)-1,3-dioxoisoindolin-5-yl)glycyl)piperazin-1-yl)propanoyl)piperidin-4-yl)-2-(4-phenoxyphenyl)-4,5,6,7-tetrahydropyrazolo[1,5-a]pyrimidine-3-carboxamide] gave a DC50 of 2.9 nM. To `CN(CCC(=O)N1CCC([C@@H]2CCNc3c(C(N)=O)c(-c4ccc(Oc5ccccc5)cc4)nn32)CC1)CC1CCN(c2ccc3c(c2)C(=O)N(C2CCC(=O)NC2=O)C3=O)CC1` (stereo partly drawn) [Example 64, (7S)-7-(1-(3-(((1-(2-(2,6-dioxopiperidin-3-yl)-1,3-dioxoisoindolin-5-yl)piperidin-4-yl)methyl)(methyl)amino)propanoyl)piperidin-4-yl)-2-(4-phenoxyphenyl)-4,5,6,7-tetrahydropyrazolo[1,5-a]pyrimidine-3-carboxamide] belongs 35 nM; to `NC(=O)c1c(-c2ccc(Oc3ccccc3)cc2)nn2c1NCC[C@H]2C1CCN(C(=O)CCN2CCC(CN3CCN(c4ccc5c(c4)C(=O)N(C4CCC(=O)NC4=O)C5=O)CC3)CC2)CC1` (stereo partly drawn) [Example 95, (7S)-7-(1-(3-(4-((4-(2-(2,6-dioxopiperidin-3-yl)-1,3-dioxoisoindolin-5-yl)piperazin-1-yl)methyl)piperidin-1-yl)propanoyl)piperidin-4-yl)-2-(4-phenoxyphenyl)-4,5,6,7-tetrahydropyrazolo[1,5-a]pyrimidine-3-carboxamide], 1680 nM. In the case of `NC(=O)c1c(-c2ccc(Oc3ccccc3)cc2)nn2c1NCC[C@H]2C1CCN(C(=O)CCCC2CCC(N3CCN(c4ccc5c(c4)C(=O)N(C4CCC(=O)NC4=O)C5=O)CC3)CC2)CC1` (stereo partly drawn) [Example 148, (7S)-7-(1-(4-(4-(4-(2-(2,6-dioxopiperidin-3-yl)-1,3-dioxoisoindolin-5-yl)piperazin-1-yl)cyclohexyl)butanoyl)piperidin-4-yl)-2-(4-phenoxyphenyl)-4,5,6,7-tetrahydropyrazolo[1,5-a]pyrimidine-3-carboxamide], the DC50 amounted to 205 nM.

`NC(=O)c1c(-c2ccc(Oc3ccccc3)cc2)nn2c1NCC[C@H]2C1CCN(C(=O)CCC2CCC(N3CCN(c4ccc5c(c4)C(=O)N(C4CCC(=O)NC4=O)C5=O)CC3)CC2)CC1` (stereo partly drawn) [Example 151, (7S)-7-(1-(3-(4-(4-(2-(2,6-dioxopiperidin-3-yl)-1,3-dioxoisoindolin-5-yl)piperazin-1-yl)cyclohexyl)propanoyl)piperidin-4-yl)-2-(4-phenoxyphenyl)-4,5,6,7-tetrahydropyrazolo[1,5-a] pyrimidine-3-carboxamide] gave a half-maximal degradation concentration (DC50) of 17 nM. With `NC(=O)c1c(-c2ccc(Oc3ccccc3)cc2)nn2c1NCC[C@H]2C1CCN(C(=O)CCCN2CCN(C(=O)CNc3ccc4c(c3)C(=O)N(C3CCC(=O)NC3=O)C4=O)CC2)CC1` (stereo partly drawn) [Example 152, (7S)-7-(1-(4-(4-((2-(2,6-dioxopiperidin-3-yl)-1,3-dioxoisoindolin-5-yl)glycyl)piperazin-1-yl)butanoyl)piperidin-4-yl)-2-(4-phenoxyphenyl)-4,5,6,7-tetrahydropyrazolo[1,5-a]pyrimidine-3-carboxamide] the figure was 35 nM; with `NC(=O)c1c(-c2ccc(Oc3ccccc3)cc2)nn2c1NCC[C@H]2C1CCN(C(=O)CCNc2cccc3c2C(=O)N(C2CCC(=O)NC2=O)C3=O)CC1` (stereo partly drawn) [Example 154, (7S)-7-(1-(3-((2-(2,6-dioxopiperidin-3-yl)-1,3-dioxoisoindolin-4-yl)amino)propanoyl)piperidin-4-yl)-2-(4-phenoxyphenyl)-4,5,6,7-tetrahydropyrazolo[1,5-a]pyrimidine-3-carboxamide], 637 nM. To `CN(CC1CCN(C(=O)c2ccc(N3CCC(=O)NC3=O)cc2)CC1)C1CC(C(=O)N2CCC([C@@H]3CCNc4c(C(N)=O)c(-c5ccc(Oc6ccccc6)cc5)nn43)CC2)C1` (stereo partly drawn) [Example 155, (S)-7-(1-(3-(((1-(4-(2,4-dioxotetrahydropyrimidin-1(2H)-yl)benzoyl)piperidin-4-yl)methyl)(methyl)amino)cyclobutane-1-carbonyl)piperidin-4-yl)-2-(4-phenoxyphenyl)-4,5,6,7-tetrahydropyrazolo[1,5-a]pyrimidine-3-carboxamide] belongs 7.2 nM.
